From paper PMC12195677, “In Vitro Effect of Ferruginol, Tanshinone, and Carnosol Analogues on the Proliferation of Three Breast Cancer Cell Lines” (Molecules, 2025)
Read-outs that look alike come from different tables or passages of the source.

What was measured:
[1] = test system: human BJ fibroblasts; conditions: cited from earlier work
[2] = test system: MDA-MB231; conditions: cited from earlier work; for TI (therapeutic index) MDA-MB231: EC50 BJ fibroblasts / EC50 MDA-MB231
[3] = test system: SUM149; conditions: cited from earlier work; for TI (therapeutic index) SUM149: EC50 BJ fibroblasts / EC50 SUM149; for Effectiveness against SUM149 cell line (in words): conclusions, Table 1 values of these compounds ref 13
[4] = test system: MDA-MB231 breast cancer cells; test: Cell morphology by brightfield microscopy; assay type: cell-based, Human; conditions: 24 h treatment, brightfield 10×; 1 and 6 at 5 μM, 10 at 10 μM
Excerpt: Brightfield microscopy images of MDA-MB231 breast cancer cells are indicated in Figure 6 to highlight the morphological changes that occur upon treatment with compounds 1, 6, and 10 as representative compounds. […] The precise mechanism of cell death for other compounds remained unclear.
Representative images were collected using 10× objective with a Leica DMi1 Microscope (Leica microsystems, Wetzlar, Germany). MDA-MB231 cells were imaged with a vehicle as the negative control, staurosporine as the positive control (2 μM), or compounds with results shown in representative images for 24 h.

[5] = test system: MCF07; conditions: cited from earlier work; for TI (therapeutic index) MCF07: EC50 BJ fibroblasts / EC50 MCF07
[6] = test system: SUM149 cells; test: Colony formation (clonogenic) assay, SUM149; assay type: cell-based, Human; conditions: 10 μM
Description: Further evaluation of various promising compounds using breast cancer cells included analysis of colony-forming inhibition capabilities and investigations into their specific mechanistic pathways of action. Thus, the anchorage-dependent colony formation assay, also known as the clonogenic assay, was conducted. This method in cancer research evaluates the ability of single cells to grow into colonies when attached to a surface and can measure a cell’s ability to undergo “unlimited” division and form a colony (usually defined as ≥50 cells).
The clonogenic assay offers comprehensive insights into the compound’s overall efficacy and is regarded as the definitive method for assessing post-treatment reproductive cell death (both cytotoxic and cytostatic effects). The extended duration of the experiment simultaneously provides valuable data on the compounds’ stability over time, which are not detected in short-term viability assays. […] In the MDA-MB231 cellular model (Figure 3), the evaluated compounds successfully eliminated the cells’ capacity to establish colonies (for images, see Figures S3 and S4).
MDA-MB-231 (0.8 × 10^6 cells/well) and SUM-149 cells (1.5 × 10^6 cells/well) were plated on a 6-well plate. Two days later, cell media was changed to 5% FBS, and cells were incubated at 37 °C in a 5% CO2 atmosphere for 1 h before the vehicle (0.1% DMSO) or compound (5–10μM) was added. After 72 h of treatment, cells were trypsinized and reseeded at 800 cells/mL (MDA-MB231) and 1200 cells/mL (SUM149) per well in 6-well plates. After 10 days of culture, the media was removed from the wells and washed once with cold PBS. The colonies were stained with 5 mL of 1% Crystal Violet for 30 min. The dishes were fixed by methanol, rinsed with water three times, and air-dried, and the colonies were counted using ImageJ version 1.5.4 (NIH, Bethesda, MD, USA).

[7] = test system: several breast cancer cell lines; set-up: method as in PMID 36831660; conditions: cited from earlier work; for therapeutic index range: range over the named compounds and cell lines (Table 1)
[8] = test system: SUM149; test: CellTiter-Glo cell viability/proliferation assay, SUM149; assay type: cell-based, Human; conditions: for TI (therapeutic index) SUM149: EC50 BJ fibroblasts / EC50 SUM149; for IC50: Homo sapiens, SUM149, 72 h incubation, CellTiter-Glo, mean ± SD, read-out: Cytotoxicity IC50, SUM149
Description: (§1) The compounds were systematically assessed through multiple biological testing platforms to establish their relative effectiveness and explore potential correlations between chemical structure and biological function. Firstly, their ability to inhibit the proliferation of three specific breast cancer linages (SUM149, MDA-MB231, MCF07) was evaluated in vitro by using the established CellTiter-Glo® [18, 19] cellular proliferation assay.
(§2) Human cell lines were incubated at 37 °C in a 5% CO2 atmosphere and maintained under sterile conditions. Cells were tested for Mycoplasma (Lonza, Alpharetta, GA, USA) using the manufacturer’s conditions prior to experiments. Cell lines were purchased from American Type Culture Collection (ATCC, Manassas, VA, USA), and SUM149 was obtained from Asterand (Detroit, MI, USA) and cultured without antibiotics unless stated. Cells were cultured in Eagle’s Minimum Essential Medium (EMEM), DMEM, or F12 from ATCC supplemented with 10% fetal bovine serum (FBS, Hyclone, Logan, UT, USA) and 1% GlutaMAX. Human BJ fibroblast cells (ATCC, CRL-2522) were supplemented with 10% fetal bovine serum (FBS, Hyclone, Logan, UT, USA) and 1% GlutaMAX. BJ cells were cultured in EMEM media, and breast cancer cells (MDA-MB-231, MCF07) were cultured in DMEM. SUM149 was cultured in Ham’s F12 supplemented with 1% GlutaMAX,1% Pen/Step, 2 μM cortisol, and 1 ug/mL insulin. Cells were grown to 80% confluence densities as recommended by ATCC.
(§3) Cytotoxicity evaluation was performed using the CellTiter-Glo Luminescent Cell Viability Assay kit (G7570, Promega, Madison, WI, USA), according to the manufacturer’s instructions. Briefly, the cell concentrations used were experimentally determined to ensure logarithmic growth during the 72 h duration of the experiment and avoid adverse effects on cell growth by DMSO exposure. To proceed, […] cells/well were seeded in 96-well white flat-bottomed plates (#3610 Corning, Corning, NY, USA) in […]. The plates were incubated at 37 °C in 5% CO2 for 24 h before drugging. Test compounds (10 mM in DMSO) in eight 2-fold serial dilutions were dispensed to assay plates. The final concentration of DMSO was 0.3% (v/v) in each well. The positive controls included staurosporine (10 μM) and/or gambogic acid (10 μM). The plates were incubated for 72 h at 37 °C in 5% CO2, then quenched with CellTiter-Glo® (Promega, Madison, WI, USA, 50 uL/well), centrifuged at 1000 rpm for 1 min, and incubated at RT for 20 min. Luminescence was recorded with a plate reader (CLARIOstar Plus, BMG LabTech, Ortenberg, Germany). The mean luminescence of each experimental treatment group was normalized as a percentage of the mean intensity of untreated controls. EC50 values were calculated from dose-response curve-fitting via non-linear regression using GraphPad Prism 9.0 (GraphPad Software, San Diego, CA, USA). A therapeutic index (TI) between normal and tumor cell lines can be determined (EC50 non-neoplastic cell line BJ)/(EC50 cancer cell line).

[9] = test system: MCF07; test: CellTiter-Glo cell viability/proliferation assay, MCF07; assay type: cell-based, Human; conditions: for TI (therapeutic index) MCF07: EC50 BJ fibroblasts / EC50 MCF07; for IC50: Homo sapiens, 72 h incubation, CellTiter-Glo, mean ± SD, read-out: Cytotoxicity IC50, MCF07
Description: as §1, §2, §3

[10] = CellTiter-Glo cell viability assay, non-neoplastic BJ fibroblasts; assay type: cell-based; conditions: BJ fibroblast cells (non-neoplastic, ATCC CRL-2522), non-neoplastic human BJ fibroblasts, mean ± SD, read-out: Cytotoxicity IC50, BJ
Description: as §2, §3

[11] = test system: MDA-MB231; test: CellTiter-Glo cell viability/proliferation assay, MDA-MB231; assay type: cell-based, Human; conditions: for TI (therapeutic index) MDA-MB231: EC50 BJ fibroblasts / EC50 MDA-MB231; for IC50: Homo sapiens, MDA-MB-231, 72 h incubation, CellTiter-Glo, mean ± SD, read-out: Cytotoxicity IC50, MDA-MB231
Description: as §1, §2, §3

[12] = read-out: Cytotoxicity IC50, BJ, non-neoplastic human BJ fibroblasts, 72 h, CellTiter-Glo, mean ± SD
[13] = read-out: Cytotoxicity IC50, MDA-MB231, 72 h incubation, CellTiter-Glo, mean ± SD
[14] = read-out: Cytotoxicity IC50, SUM149, 72 h incubation, CellTiter-Glo, mean ± SD
[15] = read-out: Cytotoxicity IC50, MCF07, 72 h incubation, CellTiter-Glo, mean ± SD

Compound	IC50 [1, 12]	TI (therapeutic index) MDA-MB231 [2]	IC50 [2, 13]	IC50 [3, 14]	TI (therapeutic index) MCF07 [5]	IC50 [5, 15]	TI (therapeutic index) SUM149 [3]	therapeutic index range [7]	TI (therapeutic index) SUM149 [8]	IC50 [8]	TI (therapeutic index) MCF07 [9]	IC50 [9]	IC50 at 72 h [10]	TI (therapeutic index) MDA-MB231 [11]	IC50 [11]	also measured
CC(C)c1cc2c(cc1O)[C@@]1(C)CCCC(C)(C)[C@@H]1CC2 [Compound 1, ferruginol]	> 50 µM	>6	8.3 ± 1.4 µM	> 50 µM	>3	19 ± 1.5 µM	–	–	–	–	–	–	–	–	–	Morphological changes (early apoptosis) [4]: Membrane blebbing; Colony-forming ability of SUM149 cells [6]: notable exceptions
CC(C)c1cc2c(cc1O)[C@@]1(C)CCC[C@@](C)(CN)[C@@H]1CC2 [Compound 2, 12-hydroxydehydroabietylamine]	–	15	–	–	7	–	17	–	–	–	–	–	–	–	–	IC50 [1]: 75 ± 6.2 µM; IC50 [2]: 5.1 ± 0.6 µM; IC50 [3]: 4.4 ± 0.3 µM; IC50 [5]: 10 ± 1.5 µM
CC(C)c1cc2c(cc1O)[C@@]1(C)CCC[C@@](C)(CN3C(=O)c4ccccc4C3=O)[C@@H]1CC2 [Compound 5, 18-(phthalimid-2-yl)ferruginol]	74.8 ± 5.3 µM	9	8.2 ± 0.5 µM	4.4 ± 0.2 µM	6	13 ± 0.6 µM	17	6–43	–	–	–	–	–	–	–	–
CC(C)c1cc2c(cc1O)[C@@]1(C)CCC[C@@](C)(CN3C(=O)c4cccc(F)c4C3=O)[C@@H]1CC2 [Compound 6]	–	–	–	–	–	–	–	–	13	4.8 ± 0.2 µM	12	5.4 ± 0.6 µM	63.5 ± 6.3 µM	7	9.4 ± 0.9 µM	Morphological changes (early apoptosis) [4]: Membrane blebbing
CC(C)c1cc2c(cc1O)[C@@]1(C)CCC[C@@](C)(CN3C(=O)c4ccc(F)cc4C3=O)[C@@H]1CC2 [Compound 7]	–	–	–	–	–	–	–	–	>12	4.3 ± 0.1 µM	>7	7 ± 0.6 µM	> 50 µM	>7	7.6 ± 0.2 µM	–
COc1cccc2c1C(=O)N(C[C@]1(C)CCC[C@]3(C)c4cc(O)c(C(C)C)cc4CC[C@@H]13)C2=O [Compound 8, 12-Hydroxy-N,N-(3-methoxyphthaloyl)dehydroabietylamine]	–	–	–	–	–	–	–	–	12	5.3 ± 0.1 µM	6	11 ± 1.4 µM	61.2 ± 5.4 µM	≈1	54.6 ± 5 µM	–
COc1ccc2c(c1)C(=O)N(C[C@]1(C)CCC[C@]3(C)c4cc(O)c(C(C)C)cc4CC[C@@H]13)C2=O [Compound 9, 12-Hydroxy-N,N-(4-methoxyphthaloyl)dehydroabietylamine]	–	–	–	–	–	–	–	–	14	4.3 ± 0.2 µM	5	12 ± 1.2 µM	58.9 ± 5.7 µM	7	8.2 ± 0.8 µM	–
CC(C)C1=CC2=C(C(=O)C1=O)[C@@]1(C)CCC[C@@](C)(CN3C(=O)c4ccccc4C3=O)[C@@H]1CC2 [Compound 10]	35.4 ± 5 µM	13	2.8 ± 0.4 µM	1.5 ± 0.4 µM	15	2.3 ± 1.1 µM	24	6–43	–	–	–	–	–	–	–	Effectiveness against SUM149 cell line (in words) [3]: notable effectiveness; Morphological changes (early apoptosis) [4]: Membrane blebbing; Colony-forming ability of SUM149 cells [6]: notable exceptions
COC(=O)[C@]1(C)CCC[C@]2(C)C3=C(C=C(C(C)C)C(=O)C3=O)CC[C@@H]12 [Compound 11]	56.5 ± 6.1 µM	15	3.9 ± 0.8 µM	1.3 ± 0.6 µM	7	8.3 ± 0.9 µM	43	6–43	–	–	–	–	–	–	–	Effectiveness against SUM149 cell line (in words) [3]: notable effectiveness; Colony-forming ability of SUM149 cells [6]: notable exceptions
CC(C)c1cc2c(c(O)c1O)[C@@]1(C)CCC[C@@](C)(CN3C(=O)c4ccccc4C3=O)[C@@H]1CC2 [Compound 12]	–	12	–	–	7	–	18	6–43	–	–	–	–	–	–	–	IC50 [1]: 32.5 ± 5 µM; IC50 [2]: 2.8 ± 0.2 µM; IC50 [3]: 1.8 ± 0.2 µM; IC50 [5]: 4.6 ± 0.6 µM
COC(=O)[C@]1(C)CCC[C@]2(C)c3c(cc(C(C)C)c(O)c3O)CC[C@@H]12 [Compound 13]	–	6	–	–	≈1	–	≈1	–	–	–	–	–	–	–	–	Bioactivity across the tested cell lines (in words) ([7]; conclusions, Table 1 values of this compound ref 13): minimal activity; IC50 [1]: 57.6 ± 3 µM; IC50 [2]: 9.4 ± 0.4 µM; IC50 [3]: > 50 µM; IC50 [5]: > 50 µM
